The results in this text go back to ChEMBL document CHEMBL1135173, “Discovery of substituted 3,4-diphenyl-thiazoles as a novel class of monoamine transporter inhibitors through 3-D pharmacophore search using a new pharmacophore model derived from mazindol” (Bioorg Med Chem Lett, 2002).

For experiment [1], the target named is Monoamine transporters; serotonin & dopamine (Rattus norvegicus) (UniProt P31652+P23977). The experiment can be described thus: Selectivity ratio towards Serotonin and to that of dopamine transporter. It counts as protein assay.
Experiment [2] concerns the target Norepinephrine transporter (Rattus norvegicus, UniProt Q9WTR4). The experiment can be described thus: Compound was tested for the inhibition of norepinephrine [3H]NE reuptake into rat cortical membranes. It counts as cell membranes, Membrane.
Experiment [3] has as its target Sodium-dependent dopamine transporter (Rattus norvegicus, UniProt P23977). Briefly: Tested for the ability to displace [3H]WIN-35 428 binding to dopamine transporter (DAT) in rat striatal tissue. Type of experiment: tissue-based, Striatum.
In experiment [4] the target is Norepinephrine transporter (Rattus norvegicus) (UniProt Q9WTR4). The experiment can be described thus: Selectivity ratio towards Norepinephrine and to that of serotonin transporter.
The species entered for experiment [5] is Rattus norvegicus. Briefly: Compound was tested for the inhibition of [3H]-DA reuptake into rat striatal tissue. Type of experiment: functional, Striatum.
Experiment [6] concerns the target Norepinephrine transporter (Rattus norvegicus) (UniProt Q9WTR4). Briefly: Selectivity ratio towards Norepinephrine and to that of dopamine transporter.
Experiment [7] deals with Sodium-dependent serotonin transporter (Rattus norvegicus, UniProt P31652). The experiment can be described thus: Compound was tested for the inhibition of serotonin [3H]SER reuptake into rat forebrain membranes. It counts as cell membranes, Membrane.
The species entered for experiment [8] is Rattus norvegicus. Briefly: Compound was tested for the inhibition of [3H]DA reuptake into dopamine transporter in rat striatal tissue. Type of experiment: functional, Striatum.

Sodium-dependent serotonin transporter, sequence (P31652 whole entry): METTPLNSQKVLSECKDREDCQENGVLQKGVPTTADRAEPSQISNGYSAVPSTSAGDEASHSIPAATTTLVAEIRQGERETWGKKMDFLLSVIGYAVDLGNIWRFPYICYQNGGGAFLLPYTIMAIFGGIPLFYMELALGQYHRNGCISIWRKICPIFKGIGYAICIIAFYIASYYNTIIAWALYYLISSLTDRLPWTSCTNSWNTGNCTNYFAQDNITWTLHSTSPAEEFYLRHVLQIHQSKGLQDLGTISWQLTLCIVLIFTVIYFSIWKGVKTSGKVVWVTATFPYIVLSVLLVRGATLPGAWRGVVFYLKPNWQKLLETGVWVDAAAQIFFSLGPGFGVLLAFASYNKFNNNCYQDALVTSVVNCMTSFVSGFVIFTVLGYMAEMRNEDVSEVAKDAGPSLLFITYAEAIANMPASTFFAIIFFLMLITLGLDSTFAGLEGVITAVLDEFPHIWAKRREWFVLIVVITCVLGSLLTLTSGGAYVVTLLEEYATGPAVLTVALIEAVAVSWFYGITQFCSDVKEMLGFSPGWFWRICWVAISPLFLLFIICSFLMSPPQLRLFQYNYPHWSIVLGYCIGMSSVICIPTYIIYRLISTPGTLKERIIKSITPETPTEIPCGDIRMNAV
Norepinephrine transporter (Rattus norvegicus), sequence (Q9WTR4 as listed by the source): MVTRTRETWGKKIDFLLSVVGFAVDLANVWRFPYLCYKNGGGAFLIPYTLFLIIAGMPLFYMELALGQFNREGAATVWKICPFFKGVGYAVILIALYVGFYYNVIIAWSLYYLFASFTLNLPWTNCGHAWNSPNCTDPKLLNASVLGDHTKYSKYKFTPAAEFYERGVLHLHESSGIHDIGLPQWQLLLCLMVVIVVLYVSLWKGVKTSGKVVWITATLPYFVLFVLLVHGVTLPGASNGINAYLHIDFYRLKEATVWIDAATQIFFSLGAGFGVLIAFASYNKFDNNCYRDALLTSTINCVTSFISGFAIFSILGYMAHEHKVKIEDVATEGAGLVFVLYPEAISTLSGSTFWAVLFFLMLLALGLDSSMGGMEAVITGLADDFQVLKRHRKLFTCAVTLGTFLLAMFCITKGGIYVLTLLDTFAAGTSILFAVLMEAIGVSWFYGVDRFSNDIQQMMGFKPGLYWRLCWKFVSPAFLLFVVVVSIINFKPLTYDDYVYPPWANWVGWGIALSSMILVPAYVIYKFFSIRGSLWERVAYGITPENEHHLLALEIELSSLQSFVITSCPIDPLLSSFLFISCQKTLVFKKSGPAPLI
Norepinephrine transporter, sequence (Q9WTR4 whole entry): as the sequence (Q9WTR4 as listed by the source) above
Sodium-dependent dopamine transporter, sequence (P23977 whole entry): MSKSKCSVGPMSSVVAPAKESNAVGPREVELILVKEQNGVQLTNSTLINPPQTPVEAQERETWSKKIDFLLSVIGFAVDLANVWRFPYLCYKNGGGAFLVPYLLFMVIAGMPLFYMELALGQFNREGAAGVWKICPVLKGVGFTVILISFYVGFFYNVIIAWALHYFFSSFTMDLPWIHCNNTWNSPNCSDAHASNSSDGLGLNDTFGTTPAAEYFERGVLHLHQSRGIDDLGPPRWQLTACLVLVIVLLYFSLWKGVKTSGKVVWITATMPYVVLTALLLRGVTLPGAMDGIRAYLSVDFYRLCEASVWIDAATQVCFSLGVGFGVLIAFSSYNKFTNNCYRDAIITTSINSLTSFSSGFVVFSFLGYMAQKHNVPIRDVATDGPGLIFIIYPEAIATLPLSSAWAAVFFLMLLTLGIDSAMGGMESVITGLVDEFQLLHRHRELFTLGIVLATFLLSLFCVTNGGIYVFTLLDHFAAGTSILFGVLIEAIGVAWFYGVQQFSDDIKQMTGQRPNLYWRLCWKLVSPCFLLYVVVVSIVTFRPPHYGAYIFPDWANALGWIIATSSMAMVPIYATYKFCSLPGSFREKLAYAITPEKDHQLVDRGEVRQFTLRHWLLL
Monoamine transporters; serotonin & dopamine (Rattus norvegicus), sequence (P23977 whole entry, looked up): as the sequence (P23977 whole entry) above
Monoamine transporters; serotonin & dopamine (Rattus norvegicus), sequence (P31652 whole entry, looked up): as the sequence (P31652 whole entry) above

As for `N=c1scc(-c2ccc(Cl)cc2)n1-c1ccccc1F`, the Selectivity ratio in experiment [1] was 6.69; in experiment [4], 0.026; in experiment [6], 0.17. The Ki (commonly the equilibrium dissociation constant of an inhibitor or competing ligand from its target) in experiment [2] came to 36 nM; in experiment [3], 189 nM; in the experiment filed under Rattus norvegicus [5], 210 nM; in experiment [7], 1410 nM.

With `N=c1scc(-c2ccc(Cl)cc2)n1-c1ccccc1N1CCOCC1`, the results for the Selectivity ratio in experiment [1], in experiment [4] and in experiment [6] were 0.006, 52.1 and 0.29, respectively. In addition, the Ki in experiment [2] worked out at 22100 nM; in experiment [3], 42000 nM; in the experiment listed under Rattus norvegicus [8], 76400 nM; in experiment [7], 424 nM.

With `Cc1ccc(-c2csc(=N)n2-c2ccc(Cl)cc2)cc1`, the Selectivity ratio was 15.3 in experiment [1], 0.31 in experiment [4] and 4.68 in experiment [6]. Moreover, the inhibition constant Ki in experiment [2] stood at 801 nM; in experiment [3] it was 124 nM; in the experiment listed under Rattus norvegicus [5], 171 nM; in experiment [7], 2620 nM.

For `CC1C(=O)N=CC(c2ccccc2)=C1c1ccccc1` (stereo not drawn), the Ki in experiment [3] was more than 1000 nM.

For the compound `Cc1cc(-c2csc(=N)n2-c2ccc(Cl)cc2)ccc1Cl`, the Selectivity ratio was 9.4 in experiment [1], 0.44 in experiment [4] and 4.1 in experiment [6]. The Ki stood at 99 nM in experiment [2], 24 nM in experiment [3], 23 nM in the experiment listed under Rattus norvegicus [5] and 225 nM in experiment [7].

As for `N=c1scc(-c2ccc(Cl)cc2)n1-c1ccc(Cl)cc1Cl`, the Selectivity ratio in experiment [1] was 3.32; in experiment [4] it was 0.17; in experiment [6], 0.55. Further, the Ki was 141 nM in experiment [2], 533 nM in experiment [3], 254 nM in the experiment listed under Rattus norvegicus [5] and 843 nM in experiment [7].

With `N=c1scc(-c2ccc(Cl)cc2)n1-c1cccc(C(F)(F)F)c1`, the values for the Selectivity ratio in experiment [1], in experiment [4] and in experiment [6] were 3.94, 0.065 and 0.26, respectively. For the same compound, the Ki in experiment [2] was 26 nM; in experiment [3] it was 86 nM; in the experiment listed under Rattus norvegicus [5], 101 nM; in experiment [7], 398 nM.

For the compound `N=c1scc(-c2ccc(Br)cc2)n1-c1cccc(C(F)(F)F)c1`, the Selectivity ratio was 0.56 in experiment [1], 2.09 in experiment [4] and 1.17 in experiment [6]. In addition, the Ki was found to be 140 nM in experiment [2], 71 nM in experiment [3], 120 nM in the experiment listed under Rattus norvegicus [5] and 67 nM in experiment [7].

On to `Cc1cc(-n2c(-c3c(F)cccc3F)csc2=N)ccc1Cl`, for which the Selectivity ratio turned out to be 4.25 in experiment [1], 0.2 in experiment [4] and 0.84 in experiment [6]. Also, the Ki in experiment [2] worked out at 86 nM; in experiment [3] it was 48 nM; in the experiment listed under Rattus norvegicus [5], 102 nM; in experiment [7] it was 433 nM.

For the compound `c1ccc(-c2nccnc2-c2ccccc2)cc1`, the inhibition constant (Ki) in experiment [3] is more than 1000 nM.
